Experiments:
[1] = tested on: Sugarbeets; assay: Test B pre-emergence on Fallsington silt loam; format: in vivo; set-up: scale not given here; conditions: 28 days
Description: (§1) Two plastic bulb pans were filled with fertilized and limed Fallsington silt loam soil. One pan was planted with corn, sorghum, Kentucky bluegrass and several grassy weeds. The other pan was planted with cotton, soybeans, purple nutsedge (Cyperus rotundus), and several broadleaf weeds. The following grassy and broadleaf weeds were planted: crabgrass (Digitaria sanguinalis), barnyardgrass (Echinochloa crusgalli), wild oats (Avena fatua), johnsongrass (Sorghum halepense), dallisgrass (Paspalum dilatatum), giant foxtail (Setaria faberii), cheatgrass (Bromus secalinus), mustard (Brassica arvensis), cocklebur (Xanthium pensylvanicum), pigweed (Amaranthus retroflexus), morningglory (Ipomoea hederacea), cassia (Cassia tora), teaweed (Sida spinosa), velvetleaf (Abutilon theophrasti), and jimsonweed (Datura stramonium). A 12.5 cm diameter plastic pot was also filed with prepared soil and planted with rice and wheat. Another 12.5 cm pot was planted with sugarbeets. The above four containers were treated pre- emergence with several test compounds within the scope of the invention.
(§2) Twenty-eight days after treatment, the plants were evaluated and visually rated for response to the chemical treatments utilizing the rating system described previously for Test A. The data are summarized in Table B.

[2] = tested on: Wheat; assay: Test B pre-emergence on Fallsington silt loam; format: in vivo; set-up: scale not given here; conditions: 28 days
Description: as §1, §2

[3] = tested on: Dallisgrass; assay: Test B pre-emergence on Fallsington silt loam; format: in vivo, Paspalum dilatatum; set-up: scale not given here; conditions: 0.03 kg/ha, 28 days
Description: as §1, §2

[4] = tested on: Johnsongrass; assay: Test B pre-emergence on Fallsington silt loam; format: in vivo, Sorghum halepense; set-up: scale not given here; conditions: 0.12 kg/ha, 28 days
Description: as §1, §2

[5] = tested on: Pigweed; assay: Test B pre-emergence on Fallsington silt loam; format: in vivo, Amaranthus retroflexus; conditions: 0.03 kg/ha, 28 days
Description: as §1, §2

[6] = tested on: Cassia; assay: Test B pre-emergence on Fallsington silt loam; format: in vivo, Cassia tora; conditions: 0.12 kg/ha, 28 days
Description: as §1, §2

[7] = tested on: Sorghum; assay: Test F over-the-top soil/foliage treatment; format: in vivo; set-up: scale not given here; conditions: soil/foliage spray, ~14 days
Protocol: (§3) The test chemicals, dissolved in a non-phytotoxic solvent, were applied in an overall spray to the foliage and surrounding […] of selected plant species. […] Approximately fourteen days after treatment, all species were visually compared to untreated controls and rated for response to treatment.
(§4) All plant species were seeded in Woodstown sandy loam soil and grown in a greenhouse. The following species were grown in soil contained in plastic pots (25 cm diameter by 13 cm deep): soybeans, cotton, alfalfa, corn, rice, wheet, sorghum, velvetleaf (Abutilon theophrasti), sesbania (Sesbania exaltata), Cassia (Cassia tora), morningglory (Ipomoea hederacea), jimsonweed (Datura stramonium), cocklebur (Xanthium pensylvanicum), crabgrass (Digitaria spp.), nutsedge (Cyperus rotundus), barnyardgrass (Echinochloa crusgalli), giant foxtail (Setaria faberii) and wild oats (Avena fatua). The following species were grown in soil in a paper cup (12 cm diameter by 13 cm deep): sunflower, sugarbeets, and mustard. All plants were sprayed approximately 14 days after planting.

[8] = tested on: Alfalfa; assay: Test F over-the-top soil/foliage treatment; format: in vivo; set-up: scale not given here; conditions: soil/foliage spray, ~14 days
Protocol: as §3, §4

[9] = tested on: Wild Oats; assay: Test F over-the-top soil/foliage treatment; format: in vivo, Avena fatua; set-up: scale not given here; conditions: soil/foliage spray, ~14 days
Protocol: as §3, §4

[10] = tested on: Wheat; assay: Test F over-the-top soil/foliage treatment; format: in vivo, wheet; set-up: scale not given here; conditions: soil/foliage spray, ~14 days
Protocol: as §3, §4

[11] = tested on: Sugarbeets; assay: Test F over-the-top soil/foliage treatment; format: in vivo; conditions: soil/foliage spray; 0.007 kg/ha; ~14 days
Protocol: as §3, §4

[12] = tested on: Sunflower; assay: Test F over-the-top soil/foliage treatment; format: in vivo; conditions: soil/foliage spray, ~14 days
Protocol: as §3, §4

[13] = tested on: Mustard; assay: Test F over-the-top soil/foliage treatment; format: in vivo; conditions: soil/foliage spray, ~14 days
Protocol: as §3, §4

[14] = tested on: Corn; assay: Test F over-the-top soil/foliage treatment; format: in vivo; conditions: soil/foliage spray; 0.06 kg/ha; ~14 days
Protocol: as §3, §4

[15] = tested on: Ky. bluegrass; assay: Test B pre-emergence on Fallsington silt loam; format: in vivo, Kentucky bluegrass; set-up: scale not given here; conditions: 0.12 kg/ha, 28 days
Description: as §1, §2

[16] = tested on: Barnyardgrass; assay: Test F over-the-top soil/foliage treatment; format: in vivo, Echinochloa crusgalli; set-up: scale not given here; conditions: soil/foliage spray, ~14 days
Protocol: as §3, §4

[17] = tested on: Giant Foxtail; assay: Test F over-the-top soil/foliage treatment; format: in vivo, Setaria faberii; set-up: scale not given here; conditions: soil/foliage spray, ~14 days
Protocol: as §3, §4

[18] = tested on: Crabgrass; assay: Test F over-the-top soil/foliage treatment; format: in vivo, Digitaria spp.; set-up: scale not given here; conditions: soil/foliage spray, ~14 days
Protocol: as §3, §4

[19] = tested on: Jimsonweed; assay: Test F over-the-top soil/foliage treatment; format: in vivo, Datura stramonium; conditions: soil/foliage spray, ~14 days
Protocol: as §3, §4

[20] = tested on: Nutsedge; assay: Test F over-the-top soil/foliage treatment; format: in vivo, Cyperus rotundus; set-up: scale not given here; conditions: soil/foliage spray, ~14 days
Protocol: as §3, §4

[21] = tested on: Sesbania; assay: Test F over-the-top soil/foliage treatment; format: in vivo, Sesbania exaltata; set-up: scale not given here; conditions: soil/foliage spray, ~14 days
Protocol: as §3, §4

[22] = tested on: Morningglory; assay: Test B pre-emergence on Fallsington silt loam; format: in vivo, Ipomoea hederacea; conditions: 0.03 kg/ha, 28 days
Description: as §1, §2

Q: Which Sugarbeets response rating ([1]; 0.03 kg/ha) does the source give for `COc1cc(OC)nc(NC(=O)NS(=O)(=O)c2ccccc2OS(C)(=O)=O)n1` [Compound 1, N-[(4,6-Dimethoxypyrimidin-2-yl)aminocarbonyl]-2-hydroxybenzenesulfonamide, methanesulfonate] here?
A: 10C

Q: What about the Sugarbeets response rating ([1]; 0.12 kg/ha) of the same compound?
A: 10C

Q: And the Wheat response rating ([2]; 0.03 kg/ha)?
A: 0

Q: And the Wheat response rating ([2]; 0.12 kg/ha)?
A: 3G

Q: What about the Dallisgrass response rating [3] of the same compound?
A: 7G

Q: What about the Johnsongrass response rating [4] of the same compound?
A: 10C

Q: What about the Pigweed response rating [5] of the same compound?
A: 10C

Q: What about the Cassia response rating [6] of the same compound?
A: 10C

Q: What about the Sorghum response rating ([7]; 0.015 kg/ha) of the same compound?
A: 9C

Q: And the Sorghum response rating ([7]; 0.06 kg/ha)?
A: 10C

Q: And the Alfalfa response rating ([8]; 0.015 kg/ha)?
A: 5C

Q: And the Alfalfa response rating ([8]; 0.06 kg/ha)?
A: 9C

Q: And the “Wild Oats response rating” value ([9]; 0.003 kg/ha)?
A: 3G

Q: And the “Wild Oats response rating” value ([9]; 0.007 kg/ha)?
A: 3G

Q: And the “Wild Oats response rating” value ([9]; 0.015 kg/ha)?
A: 3G

Q: What about the “Wild Oats response rating” value ([9]; 0.06 kg/ha) of the same compound?
A: 6G

Q: And the Wheat response rating ([10]; 0.003 kg/ha)?
A: 1G

Q: And the Wheat response rating ([10]; 0.007 kg/ha)?
A: 0

Q: What about the Wheat response rating ([10]; 0.015 kg/ha) of the same compound?
A: 0

Q: What about the Wheat response rating ([10]; 0.06 kg/ha) of the same compound?
A: 0

Q: What about the Sugarbeets response rating [11] of the same compound?
A: 10C

Q: What about the Sunflower response rating ([12]; 0.003 kg/ha) of the same compound?
A: 10C

Q: And the Sunflower response rating ([12]; 0.007 kg/ha)?
A: 10C

Q: And the Mustard response rating ([13]; 0.003 kg/ha)?
A: 10C

Q: What about the Mustard response rating ([13]; 0.007 kg/ha) of the same compound?
A: 10C

Q: What about the Corn response rating [14] of the same compound?
A: 10C

Q: And the “Ky. bluegrass response rating” value [15]?
A: 10C

Q: And the Barnyardgrass response rating ([16]; 0.015 kg/ha)?
A: 10C

Q: What about the Barnyardgrass response rating ([16]; 0.06 kg/ha) of the same compound?
A: 10C

Q: And the “Giant Foxtail response rating” value ([17]; 0.003 kg/ha)?
A: 5G

Q: And the “Giant Foxtail response rating” value ([17]; 0.007 kg/ha)?
A: 5G

Q: What about the Crabgrass response rating ([18]; 0.003 kg/ha) of the same compound?
A: 0

Q: What about the Crabgrass response rating ([18]; 0.007 kg/ha) of the same compound?
A: 5G

Q: And the Crabgrass response rating ([18]; 0.015 kg/ha)?
A: 2C

Q: What about the Jimsonweed response rating ([19]; 0.003 kg/ha) of the same compound?
A: 0

Q: What about the Jimsonweed response rating ([19]; 0.007 kg/ha) of the same compound?
A: 0

Q: What about the Jimsonweed response rating ([19]; 0.06 kg/ha) of the same compound?
A: 9C

Q: What about the Nutsedge response rating ([20]; 0.003 kg/ha) of the same compound?
A: 3G

Q: What about the Nutsedge response rating ([20]; 0.007 kg/ha) of the same compound?
A: 5G

Q: And the Nutsedge response rating ([20]; 0.015 kg/ha)?
A: 10C

Q: What about the Nutsedge response rating ([20]; 0.06 kg/ha) of the same compound?
A: 10C

Q: And the Sesbania response rating ([21]; 0.003 kg/ha)?
A: 10C

Q: And the Sesbania response rating ([21]; 0.007 kg/ha)?
A: 10C

Q: And the Sesbania response rating ([21]; 0.015 kg/ha)?
A: 9C

Q: What about the Sesbania response rating ([21]; 0.06 kg/ha) of the same compound?
A: 9C

Q: What about the Morningglory response rating [22] of the same compound?
A: 5G

From patent EP0044212B1, “Herbicidal o-alkylsulfonyloxy- and o-alkylsulfonylamino-benzenesulfonamides” (E.I. DU PONT DE NEMOURS AND COMPANY, priority 1980, dated 1982)
